Data from PMC6273765, “Synthesis and Biological Evaluation of Novel Aromatic Imide-Polyamine Conjugates” (Molecules, 2016).
Where a name gives a salt, the structure may show the parent alone.

Experiments:
HepG2 cells [1] = assay: MTT cytotoxicity, HepG2; format: cell-based, human; details: mean of three experiments
K562 cells = assay: MTT cytotoxicity, K562; format: cell-based, human; details: mean of three experiments
HCT-116 cells = assay: MTT cytotoxicity, HCT-116; format: cell-based, human; details: mean of three experiments
QSG-7701 cells = assay: MTT cytotoxicity, QSG-7701 normal hepatocyte; format: cell-based; details: normal hepatocyte cell line
MDA-MB-231 cells = assay: MTT cytotoxicity, MDA-MB-231; format: cell-based; details: Homo sapiens, 48 h, mean of three experiments
[2] = test system: H22 cells lung metastasis; assay: H22 lung metastasis model; format: in vivo, Kunming mice; details: 11e 1 mg/kg; for Metastatic Focus (No.) / Inhibition Rate (lung metastasis): amonafide 5 mg/kg i.v., 7 consecutive days; for Metastatic Focus (No.): control 110.04 ± 15.38; for No. Dead: amonafide 5 mg/kg, lung metastasis model; for Inhibition Rate (lung metastasis): vs normal saline
Text: Metastasis is the process by which tumors spread from the primary organ in which they arise to other sites in the body. In most cases, tumors that stay confined to one organ will not be fatal, tumors that have spread to other organs have a greater potential for causing harm. To test whether 11e was effective against an established lung metastasis, we injected H22 cells intravenously into 24 Kunming mice (5 × 10^6 cells each mouse). To ensure that all mice bore actively growing lung tumors before the drug treatment, pulmonary cancer was allowed to develop for 10 days.
H22 cells (5 × 10^6 cells per mouse) for Kunming mice were injected intravenous (i.v.) through the tail vein for tumor passive metastasis. To ensure all mice bore actively growing lung tumors before the drug treatment, pulmonary metastasis was allowed to develop for 10 days. […] On day 18, mice were killed by cervical vertebra dislocation, and lungs were removed and weighed, and then fixed in Bouin’s fluid. After the lungs were fixed, lung metastases nodus was numbered.

HepG2 cells [3] = assay: Lysosomal mass/pH, Lyso-Tracker Red (HCS); format: cell-based, human; details: HepG2, 3, 6, 12 μM, 48 h
Text: (§1) To appraise if novel naphthalimide-polyamine conjugates induce cell apoptosis, morphological study was applied after HepG2 cells were stained with AO/EB. […] To furnish more credible information about the apoptosis of HepG2 cells induced by compound 11e, we used the high content screening (HCS) technique to detect related apoptosis indicators. Mitochondria are vital cell organelles in the process of transmitting apoptosis signals, whereas the mitochondrial membrane potential (MMP) is a critical parameter related to mitochondrial function in cells. As a MMP specific cationic fluorescent dye, Rh123 is used to measure the change of MMP, which accumulates in healthy mitochondria with intact membrane potential and is absent in the depolarized mitochondria. Lysosomes, as cellular targets in cancer therapy, participate in various cell death profiles such as apoptosis and senescence. Thus, the lysosomal mass/pH (Lys/pH) variation was detected by a basic fluorescent probe Lyso-Tracker Red which selectively accumulates in acidic lysosomes during cytotoxicity occurs.
(§2) HepG2 cells were seeded in 96 well plates (6 × 10^3 cells/well), cultured for 24 h to obtain a confluent monolayer, and then treated with various concentrations of tested compounds for 48 h. […] Images were acquired on the ArrayScan HCS reader using the Target Activation BioApplication software.

HepG2 cells [4] = assay: Apoptosis by AO/EB staining (HCS); format: cell-based, human; details: HepG2, 3, 6, 12 μM, 48 h
Text: as §1, with “Lysosomes, as cellular targets in cancer therapy, participate in various cell death profiles such as apoptosis and senescence.” left out
as §2, with “monolayer” for “monolayer,”, “obtained” for “acquired”, “High Content Screening (HCS, ArrayScan, Thermo Scientific)” for “ArrayScan HCS”, “software (Thermo Scientific).” for “software.”

[5] = test system: H22 mouse hepatocellular carcinoma; assay: Subcutaneous H22 solid tumor growth inhibition; format: in vivo, Kunming mice; details: 11e 1 mg/kg, amonafide 5 mg/kg; for Inhibition Rate (tumor weight) / Tumor Weight: caudal vein, 7 consecutive days; for Inhibition Rate (tumor weight): vs normal saline; for Tumor Weight: control 2.17 ± 0.22 g; for No. Dead: solid tumor model
Text: However, few in vivo studies provided limited messages for rational design of the conjugates in comparison to the plentiful in vitro data. Indeed, there are significant discrepancies between in vitro and in vivo experiments in many cases. In vivo trials, based on preliminary in vitro screens, provide more valuable messages for further drug development. To further evaluate the antitumor activity of 11e in vivo, we chose three H22 (mice hepatoma cell line) tumor transplant models: solid tumor (tumor growth inhibition evaluation), ascites tumor (live time evaluation), and pulmonary metastasis tumor (tumor metastasis evaluation).
All animal care and experimentation conformed to the Guide for the Care and Use of Laboratory Animals published by Henan University (HUSOM2016-162). For solid tumor development, 30 male Kunming mice (Laboratory Animal Center of Henan, Zhengzhou, China) aged 5 weeks (weighing 18–22 g) were injected subcutaneously with 2 × 10^6 H22 cells. […] On day 16, the mice were killed by cervical vertebra dislocation, and solid tumors were removed and weighed. The inhibitory rate was calculated as follows: inhibitory rate (%) = [(A − B)/A] × 100, where A was the mean tumor weight of the control group and B was that of the drug treated or positive group.

HepG2 cells [6] = assay: ROS generation, DCFH-DA (HCS); format: cell-based, human; details: HepG2, 3, 6, 12 μM, 48 h
Description: It is known that polyamine conjugates may produce reactive oxygen species (ROS). The elevated ROS could bring corresponding influences on MMP loss and LYS/pH destabilization, which generally activates the cell death. Therefore, the ROS generation was detected by the DCFH-DA (2′,7′-dichlorodihydrofluorescein diacetate) experiment.
HepG2 cells were seeded in 96 well plates (6 × 10^3 cells/well), cultured for 24 h to obtain a confluent monolayer, and then treated with various concentrations of tested compounds for 48 h. Cells were incubated with Rh123 (0.25 nM), or DCFH-DA (10 μM), or Lyso-Tracker Red (50 nM ) in the dark at 37 °C for 30 min. for the measurement of mitochondrial membrane potential (MMP), or reactive oxygen species (ROS) or lysosomal mass/pH staining, respectively. After being washed with PBS to remove excess dyes, cells were further stained with the nuclear dye Hoechst 33,342 (10 μM) in the dark at 37 °C for 20 min. Images were acquired on the ArrayScan HCS reader using the Target Activation BioApplication software.

HepG2 cells [7] = assay: Mitochondrial membrane potential, Rh123 (HCS); format: cell-based, human; details: HepG2, 3, 6, 12 μM, 48 h
Text: as §1, §2

H22 cells = assay: Survival time in mice bearing H22 cells (ascites); format: in vivo, Kunming mice; details: 11e 1 mg/kg, amonafide 5 mg/kg i.v.; for median survival time (MST): 7 consecutive days, control 12.75 ± 2.5 days
Description: Impacts of 11e on survival time in H22-bearing mice were evaluated by measuring the extension of the lifespan. The median survival time (MST) in control mice was (12.75 ± 2.5) days.
For calculation of the survival time, 30 male Kunming mice were inoculated via intraperitoneal (i.p.) injection with 1 × 10^6 H22 cells/mouse on day 0 and were randomly divided into three groups. […] The median survival time (MST) for each group was observed, and the antitumor activity of the drug was evaluated by measuring the increase of the lifespan. The extended lifespan rate was calculated as follows: extend rate (%) = (MST treated group/MST control group) × 100.

[8] = Systemic toxicity (body weight, organ index); details: 11e 1 mg/kg, amonafide 5 mg/kg i.v.
Description: However, there are few reports about the systemic toxicology of naphthalimide-polyamine conjugates to support the above hypothesis. […] At the same time, the body weight was monitored to detect the dose-limited toxicity. On day 8, these mice were killed by cervical vertebra, and the organs and tissues, including samples of heart, liver, lung, kidney, spleen and thymus, were taken for the inspection of systemic toxicity.
Mice (8 per group) received 11e (1 mg/kg) and amonfide (5 mg/kg, i.v.) for 7 consecutive days and then were sacrificed. Heart, liver, kidney, lung and spleen were removed and weighed. The organ index was investigated for systemic toxicity evaluation: organ index (%) = (organ weight/body weight) × 100.

Compound	IC50 (HepG2 cells [1]; Homo sapiens, HepG2, 48 h) [µM]	IC50 (K562 cells; Homo sapiens, K562, 48 h) [µM]	IC50 (HCT-116 cells; Homo sapiens, HCT-116, 48 h) [µM]	IC50 (QSG-7701 cells; QSG7701, 48 h) [µM]	IC50 (MDA-MB-231 cells) [µM]	also measured
2-{3-[4-(3-Aminopropylamino)butylamino]butyl}-6-acetyl-1H-benz[de]isoquinoline-1,3(2H)-dione trihydrochloride [5e]						IC50 (HepG2 cells [1]; 48 h): 22.1 µM; IC50 (K562 cells; 48 h): 12.2 µM; IC50 (HCT-116 cells; 48 h): 16.9 µM; IC50 (QSG-7701 cells; 48 h): 27.7 µM
CC(=O)c1ccc2c3c(cccc13)C(=O)N(CCCCNCCCCN)C2=O [5d, 2-[(2-Dimethylamino)ethyl-[4-(4-aminobutylamino)butyl]-6-acetyl-1H-benz[de]isoquinoline-1,3(2H)-dione dihydrochloride]	23.9	31.1	22.9	23.2		
CC(=O)c1ccc2c3c(cccc13)C(=O)N(CCCCNCCCCNCCCCN)C2=O [5f, 2-{4-[4-(4-Aminobutylamino)butylamino]butyl}-6-acetyl-1H-benz[de]isoquinoline-1,3(2H)-dione trihydrochloride]	30.7	18.8	19.6	21.2		
NCCCNCC(=O)NCCCN1C(=O)c2cccc3cccc(c23)C1=O [11a, 2-(3-Aminopropylamino)-N-(3-(1,3-dioxo-1H-benzo[de]isoquinolin-2(3H)-yl)propyl)acetamide dihydrochloride]	53.5	33.2	39.9	39.2	32.4	
NCCCNCCCNCC(=O)NCCCN1C(=O)c2cccc3cccc(c23)C1=O [11b, 2-(3-(3-Aminopropylamino)propylamino)-N-(3-(1,3-dioxo-1H-benzo[de]isoquinolin-2(3H)-yl)propyl)acetamide trihydrochloride]	> 50	28	> 50	42.9	16.8	
Cl.Cl.Cl.Cl.NCCCNCCCCNCCCNCC(=O)NCCCN1C(=O)c2cccc3cccc(c23)C1=O [11e, 2-(3-(4-(3-Aminopropylamino)butylamino)propylamino)-N-(3-(1,3-dioxo-1H-benzo[de]isoquinolin-2(3H)-yl)propyl)acetamide tetrahydrochloride]	6.33	2.86	5.12	53.9	12	Metastatic Focus (No.) [2]: 40.25 ± 8.15; No. Dead [2]: 0/8; Lyso-Tracker Red fluorescence (lysosomal mass/pH) (HepG2 cells [3]): remarkable accruement of red fluorescence; apoptosis induction (AO/EB) (HepG2 cells [4]): obvious apoptosis; Inhibition Rate (tumor weight) [5]: 70.92%; Tumor Weight [5]: 0.63 ± 0.21 g; No. Dead [5]: 0/9; ROS generation (DCFH-DA) (HepG2 cells [6]): apparently increased ROS; green fluorescence of Rh123 (MMP) (HepG2 cells [7]): significantly decreased in a dose-dependent manner; life span increase vs control group (H22 cells): 2.41 fold; median survival time (MST) (H22 cells): 30.75 ± 4.4 days
NCCCCNCCCCNCCCCNCC(=O)NCCCN1C(=O)c2cccc3cccc(c23)C1=O [11f, 2-(4-(4-(4-Aminobutylamino)butylamino)butylamino)-N-(3-(1,3-dioxo-1H-benzo[de]isoquinolin-2(3H)-yl)propyl)acetamide tetrahydrochloride]	> 50	26.2	> 50	50.6	57.1	
NCCCNCCCNCCCN1C(=O)c2ccc(-c3ccccc3)cc2C1=O [17b, 5-Phenyl-2-{3-[3-(3-aminopropylamino)-propylamino]propyl}isoindoline-1,3-dione trihydrochloride]	> 50	28.2	> 50	> 50		
NCCCNCCCCNCCCN1C(=O)c2ccc(-c3ccccc3)cc2C1=O [17c, 5-Phenyl-2-{3-[4-(3-aminopropylamino)-amino]propyl}isoindoline-1,3-dione trihydrochloride]	> 50	> 50	> 50	> 50		
NCCCCNCCCCNCCCCN1C(=O)c2ccc(-c3ccccc3)cc2C1=O [17d, 5-Phenyl-2-{4-[4-(4-aminobutylamino)-butylamino]butyl}isoindoline-1,3-dione trihydrochloride]	> 50	> 50	> 50	> 50		
CN(C)CCN1C(=O)c2cccc3cc(N)cc(c23)C1=O [Amonafide, amonafide, reference compound]	6.57	6.31	15.4	55.5	7.98	Inhibition Rate (lung metastasis) [2]: 40.70%; Inhibition Rate (lung metastasis) ([2]; listed as amonafide): 40.7%; Metastatic Focus (No.) [2]: 65.25 ± 13.82; No. Dead [2]: 0/8; liver and spleen index ([8]; 7 days, compared to controls): obviously decreased; body weight change ([8]; tumor-bearing mice, 7 consecutive days): some degree of weight loss; Inhibition Rate (tumor weight) [5]: 43.79%; Tumor Weight [5]: 1.22 ± 0.13 g; No. Dead [5]: 0/9; life span increase vs control group (H22 cells): 1.53 fold; median survival time (MST) (H22 cells): 19.5 ± 3.6 days
